In general, Ki refers to a measure of affinity in units of concentration, obtained from inhibition or displacement. In general, Kd refers to the constant that tells how readily two partners part at equilibrium.

Data set [1] has as its target CB2R. Conditions: cited from earlier work.
A further data set deals with CB1R. The settings on record: cited from earlier work.
A further data set has as its target hCB2R(D80N) (Homo sapiens, UniProt P34972, D80N). Kind of data set: Homologous displacement autoradiography, brain cryosections of rats with hCB2R(D80N) overexpression. Conditions: hCB2R(D80N) region, 10 µm rat brain cryosections, homologous displacement, n = 3; read-out: KD. Type of data set: binding.
The target in data set [2] is T1, CB2R (Rattus norvegicus, UniProt Q9QZN9).
T1 construct: from tissue; host or cells: rat spleen: cryosections in vitro, and spleen of living Wistar rats in PET
T1 sequence (Q9QZN9 1-360): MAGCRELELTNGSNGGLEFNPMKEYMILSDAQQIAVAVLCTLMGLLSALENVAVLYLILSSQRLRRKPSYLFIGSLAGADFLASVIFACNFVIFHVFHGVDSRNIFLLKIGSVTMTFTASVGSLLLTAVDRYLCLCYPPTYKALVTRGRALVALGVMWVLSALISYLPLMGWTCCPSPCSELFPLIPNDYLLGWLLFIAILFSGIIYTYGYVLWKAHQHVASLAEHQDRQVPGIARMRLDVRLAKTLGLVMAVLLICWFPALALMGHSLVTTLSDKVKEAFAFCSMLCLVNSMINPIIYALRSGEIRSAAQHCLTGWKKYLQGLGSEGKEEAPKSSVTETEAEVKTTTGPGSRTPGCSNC
Format: in vivo. The settings on record: Wistar rats, i.v. pre-treatment 5 min prior tracer, between 2.5 and 20 min p.i., 1-way ANOVA p < 0.05. As to the method:
The dynamic biodistribution of the radiotracer in the lower body of rats was assessed by small animal PET (Nanoscan, Mediso, Hungary) over 60 min with a subsequently T1-weighted MR. Anaesthetized (2% isoflurane, carrier gas mixture of 40% air and 60% O2) male Wistar rats (body weight: 205–308 g, age: 8–10 weeks, no gender-specific differences were taken into account) were kept during imaging on a heated animal bed to sustain body temperature and were pretreated with vehicle (DMSO:Kolliphore EL:0.9% saline, 1:2:7), JHU94620-d8 (1.5 mg kg^−1 bodyweight) or with GW405833 (5 mg kg^−1 bodyweight) 5 min prior tracer application ([^18F]JHU94620-d8: 7.7–28.2 MBq, 0.4 to 3.2 nmol kg^−1 bodyweight), whereby all injections were administered intravenously. For the evaluation of the hCB2R-specific binding of the radiotracer in the brain, female Wistar rats (n = 6, 253–269 g, age: 8 month) were used carrying stereotactically injected constructs of AAV2/7-CaMKII0.4-intron-hCB2R(D80N) in the right striatum and AAV2/7-CaMKII0.4-intron-3flag-eGFP in the control/contralateral striatum (Vandeputte et al. [2011]). 21–26 MBq corresponding to 0.2 to 2.0 nmol kg^−1 bodyweight radiotracer were injected, whereas in displacement studies 5 mg kg^−1 bodyweight GW405833 was administered 20 min after the radiotracer (each n = 3). The PET scans were performed six months after the stereotactic injections of the AAV2/7-constructs.
The acquisitions were performed in normal mode and a coincidence mode 1–5. For subsequent dynamic reconstructions list mode data were sorted into sinograms (12 × 10 s, 6 × 30 s, 5 × 60 s and 10 × 300 s). The frames were reconstructed by Ordered Subset Expectation Maximization applied to 3D (OSEM3D) sinograms corrected for decay and attenuation (4 iterations, 6 subsets and a voxel size of 0.4 mm^3) with the Nucline software v2.01 (Mediso, Budapest, Hungary). Analyses of reconstructed studies were performed with PMOD software (v4.205, PMOD Technologies LLC, Fällanden, Switzerland) and results are expressed in standardized uptake values (SUVs) or normalized to a reference region (SUVr).

Data set [3] addresses T1, CB2R. The experiment in a line: Quantitative autoradiography, rat spleen cryosections. Format: binding. The settings on record: 100 nM CB2R PAM, rat spleen. The protocol: For quantitative autoradiography in different species, 10 µm cryosections from mouse, rat and piglet spleen were thawed, dried, and pre-incubated with incubation buffer for 10 min, dried under an airstream. Subsequently, the incubation buffer containing [^18F]JHU94620-d8 (59–137 GBq µmol^−1, 1.7–3.6 nM) was added alone or together with indicated concentrations of the reference compound. Additionally, to assess the non-specific binding of [^18F]JHU94620-d8 to cryosections GW405833 was added instead of the reference compound. After 90 min, cryosections were washed two times for 2 min with ice-cold 50 mM Tris HCl, pH7.4 and 10 s in ddH2O and subsequently dried under an airstream. For the calculation of the radioactivity concentration, 5 µl of five serial 1:2 dilutions of the incubation buffer with [^18F]JHU94620-d8 were air-dried on a microscopic slide. For binding studies in rat spleen cryosections by autoradiography with HLM-derived radiometabolites of [^18F]JHU94620-d8 obtained from the radiometabolite assay, the samples were added to the incubation buffer to a final activity concentration of 0.2 MBq mL^−1 and protocol was followed as described above. Subsequently, the slides were exposed to a phosphor imager plate. After scanning at high sensitivity and a 12.5 µm resolution with a CR35 Bio image plate scanner (Raytest Isotopenmessgeräte GmbH, Straubenhardt, Germany). The analyses of the autoradiographic images were performed with the AIDA 5.1 software (Elysia-Raytest, Angleur, Belgium) resulting in a resolution of 12.617 pixel × 12.616 pixel per µm^2 (1 voxel = 1592 µm^3 ≙ 1.59 10^–3 µg wet tissue) and inhibition curves were created with GraphPad Prism 9.5.1 (GraphPad Inc., La Jolla, CA).
(§1) The KD values were calculated with GraphPad Prism according to the modified Cheng-Prusoff method for homologous competitive binding studies, where the KD = Ki = IC50—[radioligand] and the Bmax = specific binding / [radioligand] / ((KD + [radioligand])) (Motulsky and Neubig [2000]), assuming a total protein content of 8.2% (1.3 10^–4 µg protein per voxel) in the spleen (Zaia et al. [2000]) or by determining the protein concentration of the cell membrane lysates using a BCA assay (Thermo Scientific, Braunschweig, Germany). The fractional occupancy defined as occupied binding sites per total binding sites is used to describe the binding fraction specifically bound to CB2R compared to unspecific binding, where [L] is the concentration of the ligand at the start of incubation.

Another data set addresses T2, human CB2R (hCB2R) (Homo sapiens, UniProt P34972).
T2 construct: expressed in transfected cells; host or cells: CHO(hCB2R) cells, obtained from Paul L. Prather, University of Arkansas for Medical Sciences
The experiment in a line: Homologous competition binding, CHO(hCB2R) cell membranes. As to the method: For binding studies crude homogenates of CHO(hCB2R) cells (obtained from Paul L. Prather, Department of Pharmacology and Toxicology, College of Medicine, University of Arkansas for Medical Sciences, USA) were incubated with the reference compound (self-blocking) or the CB2R-specific partial agonist GW405833 (Tocris Bioscience, Bristol, UK) with indicated concentrations at room temperature for 90 min. The total volume of 1 mL of each sample consisted of 600 µL incubation buffer (50 mM Tris HCl pH7.4, 5 mM MgCl2, 1 mM EDTA and 1% Bovine Serum Albumin), 200 µL cell membrane homogenates, 100 µL competitor or binding buffer (total binding) and 100 µl of binding buffer with [^18F]JHU94620-d8 (about 100 kBq per vial, corresponding to 0.8 to 1.6 nM). Incubation was terminated by rapid filtration through a GF-B glass fibre filter, pre-treated with 0.5% PVP with 0.1% Tween 20 solution, using a 48-well cell harvester, washed six times with buffer and filter bound activity was subsequently measured in a γ-counter (1480 WIZARD, Perkin Elmer, Turku, Finland).
as §1

Data set [4] is described as follows: Ex vivo radiometabolite analysis in CD-1 mice. Conditions: CD-1, mouse, in vivo, 30 min. As to the method:
Female adult CD-1 mice (25–42 g body weight) were used for radiometabolite analysis of [^18F]JHU94620-d4 (n = 2, 33 and 34 MBq) and [^18F]JHU94620-d8 (n = 3, 26–33 MBq) at 30 min after intravenous tail vein injection of the radiotracer to allow for the comparison of radiometabolite analysis of [^18F]JHU94620 (Moldovan et al. [2016]). The mice were immobilized by short isoflurane narcosis for the injection of the radiotracer in a restrainer and awakened mice were kept in an isolated cage until euthanisation by cervical dislocation under isoflurane narcosis. Male Wistar rats (n = 12, 613–794 g) were used for radiometabolite analysis of [^18F]JHU94620-d8 at different time points (5, 15, 30 and 60 min p.i.) after intravenous tail vein injection of the radiotracer (37–74 MBq) for the correction of the input function in pharmacokinetic analysis. Rats were kept under isoflurane narcosis (gas mixture: 2.5% isoflurane and O2) on a warmed plate until euthanization by decapitation of deep narcotized animals. Plasma samples were obtained by centrifugation with 5500 g of blood samples for 2 min at 4 °C. Resected tissues brain and spleen were kept on ice and minced for 3 × 20 s with adding 0.5 to 1 mL of 0.9% NaCl using a Precellys lysing kit and Minilys homogenizer (Bertin Technologies SAS, Montigny-le-Bretonneux, France).
The samples were further processed for subsequent radio-chromatographic analyses. Two consecutive extractions were performed in duplicates for plasma and brain determinations. Plasma, brain and spleen samples were added to the four time the volume of an ice-cold MeOH/H2O mixture (9:1, v/v). The samples were vortexed for 3 min, incubated on ice for 5 min and centrifuged at 8,600 g for 5 min. Supernatants were collected and the precipitates were re-dissolved in 100 µL of extraction solvent and the extraction procedure was repeated. The activities of supernatants and precipitates were measured in a γ-counter (1480 WIZARD, Perkin Elmer), and the extraction efficiencies were calculated as the ratio of radioactivity in the supernatant to the radioactivity in the original sample (supernatant + precipitate). The supernatants from both extractions were combined, concentrated at 70 °C under argon stream up to a remaining volume of 100 µL, and subsequently analysed by analytical radio-HPLC (method A or B).

For another data set, the target named is hCB2R. The arrangement: method as in Moldovan et al. [2016]. Conditions: ref Moldovan et al. [2016]; cited from earlier work.
In the next data set the target is hCB1R. The arrangement: method as in Moldovan et al. [2016]. Conditions: ref Moldovan et al. [2016]; cited from earlier work.
For data set [5] the following is noted: pH 7.4; cited from earlier work.
For data set [6] the following is noted: cited from earlier work.
Data set [7] concerns the target T1, CB2R. Details: method as in Govaerts et al. [2004]. Conditions: rat spleen; ref Govaerts et al. [2004]; cited from earlier work.
Data set [8] addresses T3, CB2R (Mus musculus, UniProt P47936).
T3 construct: from tissue; host or cells: mouse spleen cryosections
Details: method as in Govaerts et al. [2004]. Conditions: mouse spleen; ref Govaerts et al. [2004]; cited from earlier work.

The mark [9] stands for this setting: ref McPartland et al. [2007], Kosar et al. [2024].
[10] abbreviates: ref Caillé et al. [2017], Auvity et al. [2024].

Like-named read-outs stand apart in the source and are kept apart here.

T2 sequence (P34972 whole entry): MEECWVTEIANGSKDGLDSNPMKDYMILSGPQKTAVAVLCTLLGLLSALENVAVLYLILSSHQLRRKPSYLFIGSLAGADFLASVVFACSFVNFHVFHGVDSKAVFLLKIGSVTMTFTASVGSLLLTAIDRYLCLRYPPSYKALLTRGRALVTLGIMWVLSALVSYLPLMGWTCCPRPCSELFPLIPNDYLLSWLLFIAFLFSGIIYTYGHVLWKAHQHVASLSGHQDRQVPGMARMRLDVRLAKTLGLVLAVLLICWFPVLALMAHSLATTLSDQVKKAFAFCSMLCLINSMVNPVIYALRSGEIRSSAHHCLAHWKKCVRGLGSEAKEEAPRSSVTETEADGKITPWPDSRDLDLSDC
T3 sequence (P47936 whole entry): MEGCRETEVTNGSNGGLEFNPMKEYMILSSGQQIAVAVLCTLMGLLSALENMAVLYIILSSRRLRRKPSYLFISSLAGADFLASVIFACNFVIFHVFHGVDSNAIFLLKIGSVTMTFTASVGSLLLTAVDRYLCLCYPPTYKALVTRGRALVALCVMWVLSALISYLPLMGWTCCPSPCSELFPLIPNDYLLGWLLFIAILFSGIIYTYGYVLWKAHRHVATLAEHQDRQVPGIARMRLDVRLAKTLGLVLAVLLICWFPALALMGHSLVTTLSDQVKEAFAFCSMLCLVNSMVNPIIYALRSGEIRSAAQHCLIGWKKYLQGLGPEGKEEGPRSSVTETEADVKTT
hCB2R(D80N), sequence (P34972 whole entry D80N): as the sequence (P34972 whole entry) above, with D80N counted along it

For the molecule Δ^9-trans-tetrahydrocannabinol [THC], the values for the inhibition constant (Ki) on CB2R [1] (setting [9]) and at CB1R (setting [9]) were 36 nM and 25 nM, respectively.
`Cc1s/c(=N\C(=O)C2C(C)(C)C2(C)C)n(CCOCC[18F])c1C` [[^18F]FC0324, (Z)-N-(3-(2-(2-[^18F]Fluoroethoxy)ethyl)-4,5-dimethylthiazol-2(3H)-ylidene)-2,2,3,3-tetramethylcyclopropane-1-carboxamide]: the values for the Ki at CB2R [1] (setting [10]) and on CB1R (setting [10]) were 0.1 nM and 30 nM, respectively.
Regarding `[2H]C([2H])(F)C([2H])([2H])C([2H])([2H])C([2H])([2H])n1c(C)c(C)s/c1=N\C(=O)C1C(C)(C)C1(C)C` [JHU94620-d8, (Z)-N-(3-(4-Fluorobutyl-1,1,2,2,3,3,4,4-d8)-4,5-dimethylthiazol-2(3H)-ylidene)-2,2,3,3-tetramethylcyclopropane-1-carboxamide], the dissociation constant Kd at hCB2R(D80N) stood at 41.3 nM. Moreover, at CB2R [2], the “blocking of [^18F]JHU94620-d8 uptake into the spleen” value is on record as “significantly blocked”.
In the case of `Cc1c(Br)cn(Cc2ccc(F)cc2)c(=O)c1NC(=O)C1CCCCCC1` [CB2R PAM, reference compound], the “effect of co-incubation on the binding of [^18F]JHU94620-d8” value on CB2R [3] is on record as “did not increase the binding”; at human CB2R (hCB2R) (100 nM CB2R PAM, CHO(hCB2R) cell membranes) it was “did not increase the binding”. For the same molecule, the “competition with [^18F]JHU94620-d8 binding” value on human CB2R (hCB2R) (CB2R PAM binding assay, Figure S9 as cited) was “weak competitive binding”.
On to `COc1ccc2c(c1)c(CCN1CCOCC1)c(C)n2C(=O)c1cccc(Cl)c1Cl` [GW405833, reference compound], for which the “blocking of [^18F]JHU94620-d8 uptake into the spleen” value on CB2R [2] is on record as “significantly blocked”.
As for `CCCCC/C=C\C/C=C\C/C=C\C/C=C\CCCC(=O)OC(CO)CO` [2-AG, 2-arachydonilglycerol], the Ki at CB2R [1] (setting [9]) was 1190 nM.
`Cc1s/c(=N\C(=O)C2C(C)(C)C2(C)C)n(CCCC[18F])c1C` [[^18F]JHU94620]: the “percentage printed at the radiotracer peak of the representative radio-HPLC chromatogram (Mice)” value in data set [4] is given as 37%. Further, the inhibition constant (Ki) is 0.4 nM at hCB2R and 380 nM on hCB1R. The LogD7.4 in [5] is given as 3.2. The “parent fraction in brain” value in data set [6] (CD-1 mouse brain, 30 min p.i., ref Moldovan et al. [2016]) is on record as 0.36. Further, in [6] (mouse, in vivo), the “parent fraction in plasma” value is 0.07.
On to `CCCCCCC(C)(C)c1ccc([C@@H]2C[C@H](O)CC[C@H]2CCCO)c(O)c1` [[^3H]CP55940], for which the results for the Bmax at CB2R [7] and on CB2R [8] were 0.71 ± 0.02 pmol mg^−1 protein and 0.31 ± 0.03 pmol mg^−1 protein, respectively.
As for `CCCCC/C=C\C/C=C\C/C=C\C/C=C\CCCC(=O)NCCO` [AEA, anandamide], the values for the inhibitory constant (Ki) at CB2R [1] (setting [9]) and at CB1R (setting [9]) were 440 nM and 240 nM, respectively.
